Tests used:
[1] = molecular target: T1, adenosine A2a receptor (A2aR) (Homo sapiens, UniProt P29274); experiment: Inhibition of adenosine A2a receptor cAMP signaling pathway in CHO-K1/A2aR cells (HTRF cAMP dynamic 2 kit); assay type: cell-based; details: Table 1, 20 nM ethylcarbazole
T1 construct: expressed in transfected cells; host or cells: CHO-K1
Method in brief: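 CHO-K1/A2aR cells (10^6 cells/mL) in HBSS with 20 mM HEPES, 0.1% BSA, rolipram and adenosine deaminase, exposed to compound (0.001024–10000 nM) for 30 min at RT. Then agonist "ethylcarbazole" at 20 nM final, 30 min RT. cAMP read by HTRF after 1 h in lysis buffer.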

[2] = molecular target: T2, adenosine A1 receptor (A1R) (Homo sapiens, UniProt P30542); experiment: Inhibition of adenosine A1 receptor cAMP signaling pathway in CHO-K1/A1R cells (HTRF cAMP dynamic 2 kit); assay type: cell-based; details: Table 2; for IC50: CHO-K1/A1R cells, cAMP, 10 μM forskolin, 10 nM CPA; for IC50 ratio (A1R/A2aR): selectivity A1R over A2aR
T2 construct: expressed in transfected cells; host or cells: CHO-K1
T2 sequence (P30542 1-326): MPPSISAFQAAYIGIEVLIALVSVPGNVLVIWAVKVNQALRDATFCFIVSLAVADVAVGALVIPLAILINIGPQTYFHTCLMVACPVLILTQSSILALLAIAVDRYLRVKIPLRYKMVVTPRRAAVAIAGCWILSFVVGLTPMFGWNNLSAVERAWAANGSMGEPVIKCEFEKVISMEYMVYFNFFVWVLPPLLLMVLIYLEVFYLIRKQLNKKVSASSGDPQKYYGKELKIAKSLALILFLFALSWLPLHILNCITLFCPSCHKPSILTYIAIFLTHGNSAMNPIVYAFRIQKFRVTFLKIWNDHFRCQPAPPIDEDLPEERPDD
Method in brief: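 CHO-K1 cells stably expressing A1R, in HBSS with 20 mM HEPES, 0.1% BSA, rolipram and adenosine deaminase, were pre-incubated 30 min at RT with compound (0.1–100000 nM final). Cells were then stimulated 30 min with 10 μM forskolin plus 10 nM CPA. Intracellular cAMP was read by HTRF after 1 h detection.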

[3] = Pharmacokinetics assay in mice after intragastrical administration (plasma, LC/MS/MS); assay type: in vivo; details: mouse, po, C57 mice (female), 2 mg/kg; for Vd/F: read-out: Apparent distribution volume Vz/F; for AUC: read-out: Area under curve AUC; for CL/F: read-out: Clearance CLz/F; for Cmax: read-out: Drug concentration in blood Cmax; for half-life: read-out: Half-life T1/2 (converted); for MRT: read-out: Residence time MRT
Description: Test Example 2. Pharmacokinetics assay of the compounds of the present disclosure in mice
Mice were used as test animals. The drug concentration in plasma at different time points was determined by LC/MS/MS method after intragastrical administration of the compounds of Example 1, Example 18 and Example 19 to mice. The pharmacokinetic behavior of the compounds of the present disclosure was studied and evaluated in mice.
Twenty-seven C57 mice (female) were purchased from Shanghai Jiesijie Laboratory Animal Co., LTD, with Certificate No.: SCXK (Shanghai) 2013-0006, and equally divided into 3 groups (9 mice per group).
A certain amount of the test compound was weighed, and added with 2.5% by volume of DMSO, 2.5% by volume of tween 80 and 95% by volume of normal saline to prepare a 0.1 mg/mL colorless, clear and transparent solution.
After an overnight fast, C57 mice were administered intragastrically with the test compounds at an administration dose of 2.0 mg/kg and an administration volume of 0.2 mL/10 g.
The mice were intragastrically administered with the compounds of Example 1, Example 18 and Example 19. 0.1 mL of blood (3 animals at each time point) was taken before administration and at 0.5, 1.0, 2.0, 4.0, 6.0, 8.0, 11.0 and 24.0 hours after administration. The samples were stored in heparinized tubes, and centrifuged for 10 minutes at 3,500 rpm to separate the plasma. The plasma samples were stored at −20° C., the mice was feed 2 hours after administration.
The content of the test compounds in the plasma of the mice after intragastrical administration of the test compounds at different concentrations was determined: 25 μL of the plasma obtained at each time point after administration was taken, added with 30 μL of the internal standard solution of camptothecin (100 ng/mL) and 200 μL of acetonitrile, vortex-mixed for 5 minutes, and centrifuged for 10 minutes (4000 rpm). 3 μL of the supernatant was taken for LC/MS/MS analysis.

T1 sequence (P29274 whole entry): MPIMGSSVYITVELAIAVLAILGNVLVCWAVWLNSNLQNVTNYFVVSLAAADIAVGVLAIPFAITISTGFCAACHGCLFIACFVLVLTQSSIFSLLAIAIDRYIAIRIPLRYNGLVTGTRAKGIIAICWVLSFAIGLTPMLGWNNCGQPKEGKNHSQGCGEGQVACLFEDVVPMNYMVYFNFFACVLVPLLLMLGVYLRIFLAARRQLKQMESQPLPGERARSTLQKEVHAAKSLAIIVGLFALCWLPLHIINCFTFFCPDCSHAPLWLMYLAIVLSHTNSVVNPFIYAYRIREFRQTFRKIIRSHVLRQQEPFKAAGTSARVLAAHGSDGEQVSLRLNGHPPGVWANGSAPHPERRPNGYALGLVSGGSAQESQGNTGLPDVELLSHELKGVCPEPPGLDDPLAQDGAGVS

| Structure (SMILES) | IC50 [1] [nM] | IC50 [2] [nM] | IC50 ratio (A1R/A2aR) [2] | Vd/F [3] [L/kg] | AUC [3] [ng·h/mL] | CL/F [3] [mL/min/kg] | Cmax [3] [ng/mL] | half-life [3] [h] | MRT [3] [h] |
| --- | --- | --- | --- | --- | --- | --- | --- | --- | --- |
| Cc1ccc(-c2nc(N)nc3c(Oc4cccc(CO[C@H]5CCOC5)n4)cnn23)o1 [Example 19, (S)-4-(5-Methylfuran-2-yl)-8-((6-(((tetrahydrofuran-3-yl)oxy)methyl)pyridin-2-yl)oxy)pyrazolo[1,5-a][1,3,5]triazin-2-amine] | 0.36 | 2860 | >10^3 | 2.12 | 2490 | 13.3 | 2360 | 1.85 | 1.24 |
| Cc1ccc(-c2nc(N)nc3c(Nc4cccc(CO[C@H]5CCOC5)n4)cnn23)o1 [Example 18, (S)-4-(5-Methylfuran-2-yl)-N^8-(6-(((tetrahydrofuran-3-yl)oxy)methyl)pyridin-2-yl)pyrazolo[1,5-a][1,3,5]triazine-2,8-diamine] | 0.87 | 2540 | >10^3 | 0.841 | 4860 | 6.83 | 3180 | 1.42 | 1.63 |
| Cc1ccc(-c2nc(N)nc3c(Cc4cccc(CO[C@H]5CCOC5)n4)cnn23)o1 [Example 1, (S)-4-(5-Methylfuran-2-yl)-8-((6-(((tetrahydrofuran-3-yl)oxy)methyl)pyridin-2-yl)methyl)pyrazolo[1,5-a][1,3,5]triazin-2-amine] | 0.33 | 1120 | >10^3 | 1.9 | 724 | 45.9 | 800 | 0.48 | 0.85 |

From US20210032253A1, “PYRAZOLO[1,5-A][1,3,5]TRIAZINE-2-AMINE DERIVATIVE, PREPARATION METHOD THEREFOR AND MEDICAL USE THEREOF” (JIANGSU HENGRUI MEDICINE CO., LTD., priority 2018, published 2021)
